Paper PMC5592744 (Frontiers in Microbiology, 2017)

How the values were obtained:
Assay type in all cases: biochemical
Settings in all cases: 76 μM chalcone, FRET assay
[1] = molecular target: V168A-SrtA (Staphylococcus aureus, UniProt Q2FV99, V168A)
[2] = molecular target: I182A-SrtA (Staphylococcus aureus, UniProt Q2FV99, I182A)
[3] = molecular target: R197A-SrtA (Staphylococcus aureus, UniProt Q2FV99, R197A)

Measured: sensitivity of mutant SrtA to chalcone compared with WT-SrtA

O=C(/C=C/c1ccccc1)c1ccccc1 [chalcone]
significantly less sensitive: [1] | [2] | [3]
